# Assays:
# MIA PaCa2 cells [1] = test: Mitochondrial membrane potential, JC-10 staining; format: cell-based, human; settings: 20 µM
# Protocol: To measure the degree of MMP change of cancer cells, 20 μM JC-10 dye and assay buffer (Enzo Co., New York, NY, USA) were added to the cells cultured for 24 h and mixed until the cells were completely dissolved. Subsequently, the cells were incubated in the dark for 30 min at room temperature. The solutions were protected from light and analyzed by using flow cytometry.
# MIA PaCa2 cells [2] = test: Western blot of apoptosis-related proteins; format: cell-based, human; settings: 20 µM, 24 h
# Protocol: Cell extracts from MIA Paca2 cells were determined by BCA Protein Assay Kit (Thermo Scientific) according to the manufacturer’s instructions. Separate 20–30 μg protein by electrophoresis using Tris-Glycine gel and transfer to PVDF membranes. After transferring and blocking, the membrane was incubated with the primary antibody in TBS-T buffer containing 5% skim milk overnight at 4 °C. Then, the membrane was washed three times with TBS-T, and the secondary antibody was incubated. Chemiluminescence detection was performed using a Western blot detection kit (Milipore). Bax, Bcl-2, Caspase-3, PARP, AKT, p-AKT, ERK, and p-ERK were used for Western blot analysis. Internal controls were detected using Actin antibody.
# [3] = In vitro metabolic stability in human liver microsomes; settings: human liver microsomes 0.5 mg/mL, NADPH, 30 min
# Protocol: Microsomal incubations were conducted in triplicate in 0.1 M potassium phosphate buffer (pH 7.4) in a clean 1.5 mL Eppendorf tube. […] The final incubation mixtures contained 0.5 mg/mL HLM, 0.1 M potassium phosphate buffer (pH 7.4), NADPH regenerating system (1 mM NADPH, 10 mM MgCl2). HLM was added, and the mixture was pre-incubated at 37 °C in a shaking incubator at approximately 350 rpm for 5 min under a Thermo mixer (Eppendorf., Hamburg, Germany). Reactions were initiated by the addition of 1 mM NADPH and were then quenched by adding 40 µL of ice-cold acetonitrile containing 10 µM chlorpropamide (CPP) as an internal standard at 0 and 30 min. The incubation mixtures were then centrifuged at 15,000 g for 5 min at 4 °C. A 2 µL aliquot of the supernatant was directly injected into the LC-MS/MS system. The LC-MS/MS system consisted of the Nexera XR HPLC system (Shimadzu Co., Kyoto, Japan) coupled to the TSQ Vantage triple quadrupole mass spectrometer equipped with Xcalibur version 1.1.1 (Thermo Fisher Scientific Inc., Waltham, MA, USA).
# MIA PaCa2 cells [4] = test: Cell viability / cytotoxic effect in MIA PaCa2 cells (EZ-CYTOX/MTT); format: cell-based; settings: Homo sapiens, MIA PaCa-2, 2.5-40 µM, 24 h, relative IC50
# Protocol: The human pancreatic ductal epithelial cell lines MIA Paca2, PANC-1 were maintained in DMEM media with 10% fetal bovine serum (FBS), 100 U/mL penicillin, and 100 µg/mL streptomycin at 37 °C in a humidified 5% CO2/95% air atmosphere. Cells were seeded in 96-well plates at a density of 3000 cells/100 μL/well and incubated for 24 h. The cells were then incubated in a culture medium containing synthetic compounds. Following 24 h of incubation, the cell viability was determined using an EZ-CYTOX kit (DaeilLab Service, Seoul, Korea) according to the manufacturer’s protocol (n = 12).
# Supplementary Figure 1. Relative IC50 determination of Compound 5, Compound 10, PF-543, and FTY720. MIAPaCa2 cells were seeded in 96 well plates and treated with 2.5-40 µ M of compounds for 24h. Cell viability was assessed using MTT assay, and Relative IC50 was determined using Graph pad prism software. The result is representative of three independent experiments and data are presented as mean ± SD. *** p < 0.001 compared with non-treated […]
# (1 picture or pasted object on this page, not shown here)
# PP2A = PP2A immunoprecipitation phosphatase activity assay in MIA PaCa2 cells; format: cell-based, human; settings: 20 µM
# Protocol: PP2A activity assay was a PP2A immunoprecipitation phosphatase assay kit operated according to the manufacturer’s instruction. Briefly, a prepared protein aliquot was incubated with anti-PP2A subunit C-antibody and protein A agarose slurry at 4 °C for 2–3 h, and then phosphopeptide was added. Samples were recorded by Thermo Scientific Multiskan GO.
# [5] = In vitro metabolic stability in mouse liver microsomes; format: in vitro ADME; settings: NADPH, 30 min
# [6] = In vitro metabolic stability in dog liver microsomes; format: in vitro ADME; settings: NADPH, 30 min
# [7] = In vitro metabolic stability in rat liver microsomes; format: in vitro ADME; settings: NADPH, 30 min
# MIA PaCa2 cells [8] = test: Ceramide, S1P and sphingosine levels by ELISA in MIA PaCa2 cells; format: cell-based, human; settings: 20 µM
# Protocol: Ceramide, sphingosine, and S1P level were performed as protocols recommended by Mybiosource using the ceramide, sphingosine, and S1P ELISA kit (MyBiosource Inc., San Diego, CA, USA). Ceramide and sphingosine S1P measurements were tested with proteins that were centrifuged and collected by repeating freezing and thawing from three to five times after adding PBS to cells.
# SPHK1 = biological target: T1, SPHK1 (Homo sapiens, UniProt Q9NYA1); test: Sphingosine kinase 1 activity assay (Adapta screening system); format: biochemical; settings: 20 µM compound
# T1 construct: purchased Thermo Fisher Scientific
# T1 sequence (Q9NYA1 whole entry): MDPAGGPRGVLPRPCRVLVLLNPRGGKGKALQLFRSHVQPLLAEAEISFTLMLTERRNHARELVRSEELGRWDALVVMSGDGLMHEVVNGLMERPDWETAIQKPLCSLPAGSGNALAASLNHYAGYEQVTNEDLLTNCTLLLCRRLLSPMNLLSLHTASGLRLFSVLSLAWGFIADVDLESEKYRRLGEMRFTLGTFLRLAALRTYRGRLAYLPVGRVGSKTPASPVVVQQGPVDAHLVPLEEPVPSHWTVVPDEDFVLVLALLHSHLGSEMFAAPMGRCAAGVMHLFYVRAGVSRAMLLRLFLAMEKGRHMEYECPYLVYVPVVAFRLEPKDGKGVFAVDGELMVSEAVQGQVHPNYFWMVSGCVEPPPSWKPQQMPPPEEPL
# Protocol: (§1) SK 1/2 activity was measured using 20 μM PF-543 and compounds 1–10 using the AdaptaTM screening system (Thermo Fisher Scientific system). Sphingosine kinase 1 activity assay used 0.04–0.16 ng SPHK1, 50 μM sphingosine lipid substrate in 32.5 mM HEPES pH 7.5, 0.005% BRIJ 35, 5 mM MgCl2, 0.5 mM EGTA. Sphingosine kinase 2 activity assay detected 35–140 ng SPHK2, 50 μM sphingosine lipid substrate in 32.5 mM HEPES pH 7.5, 0.5 mM EGTA, and 1.5 mM MgCl2.
# MIA PaCa2 cells [9] = test: Annexin-V apoptosis assay (flow cytometry); format: cell-based, human; settings: 20 µM
# Protocol: Cell apoptosis assay was determined using annexin V- FITC and propidium iodide (PI) staining, as described in manufacturer instruction (BioBud, Gyeonggi-do, Korea). Briefly, the cells were resuspended in binding buffer and then incubated with annexin-V-FITC and propidium iodide at room temperature. After incubation, stained cells were analyzed by MACSQuant Analyzer 10 Flow Cytometer (Miltenyi Biotec, Bergisch Gladbach, Germany). The experiment was conducted three times independently (n = 6).
# SPHK2 = biological target: T2, SPHK2 (Homo sapiens, UniProt Q9NRA0); test: Sphingosine kinase 2 activity assay (Adapta screening system); format: biochemical; settings: 20 µM compound
# T2 construct: purchased Thermo Fisher Scientific
# T2 sequence (Q9NRA0 1-654): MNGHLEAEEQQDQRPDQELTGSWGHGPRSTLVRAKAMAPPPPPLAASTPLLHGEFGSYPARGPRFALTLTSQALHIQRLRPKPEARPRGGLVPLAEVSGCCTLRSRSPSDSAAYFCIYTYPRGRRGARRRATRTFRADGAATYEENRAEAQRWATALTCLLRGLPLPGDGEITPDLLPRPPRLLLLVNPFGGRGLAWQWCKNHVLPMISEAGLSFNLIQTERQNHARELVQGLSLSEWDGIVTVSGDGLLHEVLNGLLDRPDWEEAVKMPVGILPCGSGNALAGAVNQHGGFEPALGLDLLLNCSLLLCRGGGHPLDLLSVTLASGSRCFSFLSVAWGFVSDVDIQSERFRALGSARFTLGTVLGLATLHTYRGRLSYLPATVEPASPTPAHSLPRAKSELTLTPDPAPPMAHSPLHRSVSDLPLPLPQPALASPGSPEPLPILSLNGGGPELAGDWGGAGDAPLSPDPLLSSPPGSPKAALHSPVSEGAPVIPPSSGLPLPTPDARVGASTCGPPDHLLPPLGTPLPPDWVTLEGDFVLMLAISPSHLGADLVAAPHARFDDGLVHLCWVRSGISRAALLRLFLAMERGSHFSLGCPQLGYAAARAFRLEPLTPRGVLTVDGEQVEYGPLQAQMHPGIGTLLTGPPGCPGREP
# Protocol: as §1
# SK2 = tested on: SK2; parameters: method as in PMID 30889352; settings: cited from earlier work
# SK1 = tested on: SK1; parameters: method as in PMID 30889352; settings: cited from earlier work
"In vitro stability, Human (%) [3]","In vitro stability, Mouse (%) [5]","In vitro stability, Dog (%) [6]","In vitro stability, Rat (%) [7]",SK1-inhibitory effect (SPHK1),SK2-inhibitory effect (SPHK2),SMILES,"mitochondrial membrane potential (ratio of red to green fluorescence, JC-10) (MIA PaCa2 cells [1])","expression of pro-apoptotic proteins (cleaved PARP, cleaved caspase-3) (MIA PaCa2 cells [2])",IC50 (MIA PaCa2 cells [4]),PP2A activity (PP2A),S1P level (MIA PaCa2 cells [8]),apoptotic effect (annexin-V) (MIA PaCa2 cells [9]),expression of anti-apoptotic protein Bcl-2 (MIA PaCa2 cells [2]),ceramide level (MIA PaCa2 cells [8]),sphingosine level (MIA PaCa2 cells [8]),IC50 (SK2),IC50 (SK1)
45.4%,17.9%,40.8%,27.6%,–,–,"Cc1cc(Cn2cc(-c3ccccc3)nn2)cc(OCc2ccc(CN3CCC(CO)CC3)cc2)c1 [Compound 5, (1-(4-((3-Methyl-5-((4-phenyl-1H-1,2,3-triazol-1-yl)methyl)phenoxy)methyl)benzyl)piperidin-4-yl)methanol]",significantly reduced the mitochondrial membrane potential,insignificant compared to the compound 10 treatment group,26.1 µM,little effect on PP2A,increased the S1P level,–,–,–,–,–,–
66.7%,33.3%,58.3%,53.3%,inhibited both SK1 and SK2,inhibited both SK1 and SK2,"CCCCCCCCc1cn(Cc2cc(C)cc(OCc3ccc(CN4CCC(CO)CC4)cc3)c2)nn1 [Compound 10, (1-(4-((3-Methyl-5-((4-octyl-1H-1,2,3-triazol-1-yl)methyl)phenoxy)methyl)benzyl)piperidin-4-yl)methanol]",significantly reduced the mitochondrial membrane potential,cleaved form of PARP and caspase-3 increased,11.1 µM,activated PP2A,reduced the levels of S1P and sphingosine,high apoptotic effect,Bcl-2 decreased,the ceramide level increased,reduced the levels of S1P and sphingosine,–,–
–,–,–,–,–,–,"CCCCCCCCc1ccc(CCC(N)(CO)CO)cc1 [FTY720, reference compound]",–,–,9.57 µM,–,–,–,–,–,–,–,–
–,–,–,–,–,–,OC[C@H]1CCCN1Cc1ccc(COc2cccc(OCc3ccc(Cl)cc3)c2)cc1 [compound 55],–,–,–,–,–,–,–,–,–,0.041 µM,4.13 µM

SMILES,"In vitro stability, Human (%) [3]","In vitro stability, Mouse (%) [5]","In vitro stability, Dog (%) [6]","In vitro stability, Rat (%) [7]",SK1-inhibitory effect (SPHK1),SK2-inhibitory effect (SPHK2),"mitochondrial membrane potential (ratio of red to green fluorescence, JC-10) (MIA PaCa2 cells [1])","expression of pro-apoptotic proteins (cleaved PARP, cleaved caspase-3) (MIA PaCa2 cells [2])",IC50 (MIA PaCa2 cells [4]),PP2A activity (PP2A),S1P level (MIA PaCa2 cells [8]),apoptotic effect (annexin-V) (MIA PaCa2 cells [9]),expression of anti-apoptotic protein Bcl-2 (MIA PaCa2 cells [2]),ceramide level (MIA PaCa2 cells [8]),sphingosine level (MIA PaCa2 cells [8]),IC50 (SK2),IC50 (SK1)
Cc1cc(CS(=O)(=O)c2ccccc2)cc(OCc2ccc(CN3CCC[C@@H]3CO)cc2)c1 [PF-543],–,7.5%,2.9%,4.7%,–,–,significantly reduced the mitochondrial membrane potential,–,–,also activated PP2A,reduce the level of S1P,–,–,did not significantly change the levels of ceramide and sphingosine,did not significantly change the levels of ceramide and sphingosine,–,–
